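Cultured in 96-well plates, cells were exposed to test compound for 48 hours across five concentrations. Abbreviation: GI50, concentration required for 50% inhibition of growth. Definition used: TGI = concentration required for complete inhibition of growth.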
Legend:
Test in all cases: inhibition of tumour cell growth, NCI panel, 48 h
[1] = test system: KM12 colon
[2] = test system: OVCAR-5 ovarian
[3] = test system: HL-60(TB) leukemia
[4] = test system: SF-295 CNS
[5] = test system: HCC-2998 colon
[6] = test system: BT-549 breast
[7] = test system: UACC-62 melanoma
[8] = test system: RXF 393 renal
[9] = test system: LOX IMVI melanoma
[10] = test system: MDA-MB-435

SMILES | TGI [1] [µM] | TGI [2] [µM] | TGI [3] [µM] | TGI [4] [µM] | TGI [5] [µM] | TGI [6] [µM] | TGI [7] [µM] | TGI [8] [µM] | TGI [9] [µM] | TGI [10] [µM] | GI50 [6] [µM] | GI50 [9] [µM]
CC(=O)O[C@@H]1C[C@@]23C[C@@]24CC[C@H](OC2OCC(O)C(O)C2O)C(C)(C)[C@@H]4CC=C3[C@]2(C)C[C@@H]3OC4(C[C@@H](C)[C@@H]3[C@@]12C)OC(O)[C@@]1(C)O[C@@H]41 (some centres not stated) | > 100 | > 100 | 36.4 | 80.6 | 40.5 | 97.3 | 54.8 | 37.1 | 57 | > 100 |  | 
Cc1cc(C)c(P2C(=C(O[Si](C(C)C)(C(C)C)C(C)C)C(C)(C)C)C2(c2ccccc2)c2ccccc2)c(C)c1 (configuration not stated) | > 100 | > 100 | > 100 | > 100 | > 100 | > 100 | > 100 | > 100 | > 100 | > 100 |  | 
CCNc1ccc2c(c1)Cc1ccccc1-2 | > 100 | > 100 | > 100 | > 100 | > 100 | 75.5 | > 100 | > 100 | > 100 | > 100 |  | 
O=C(CSCC(=O)N/N=C/c1cccs1)N/N=C/c1cccs1 | > 100 | > 100 | > 100 | > 100 | > 100 | > 100 | > 100 | > 100 | > 100 | > 100 |  | 
CN(C)/N=C/c1cn(C)c(=O)n(C)c1=O | > 100 | > 100 | > 100 | > 100 | > 100 | > 100 | > 100 | > 100 | > 100 | > 100 |  | 
Cc1ccncc1.F[B-](F)(F)F.[Pt+2].c1ccc(-c2cccc(-c3ccccn3)n2)nc1 | 39.5 | 41.4 | > 45.7 | 7.74 | 59.5 | > 78.6 | 36.5 | 38.4 | > 88.4 | > 81.4 | 13.7 | 1.28
Cc1ccc(C(=O)N/N=C(\N=Nc2cccc(Cl)c2)c2ccc(N(CCC#N)CCC#N)cc2C)cc1 | > 100 | > 100 | > 100 | > 100 | > 100 | > 100 | > 100 | > 100 | > 100 | > 100 |  | 
COc1cc(/C=C/C(=O)c2c(=O)o[nH][n+]2-c2ccccc2)ccc1[O-] | 8.77 | 25.6 | 3.65 | 31.6 | 6.28 | 7.9 | 13.7 | 4.65 | 6.75 | 9.24 |  | 
CCOC(=O)c1c(CN2CCNCC2)nc2ccccc2c1-c1ccccc1 | 31.2 | 31.1 | 30.6 | 29 | 3.63 | 31.9 | 28.2 | 13.8 | 31.6 | 28.5 |  | 
N#CC(C#N)=C1C(C#N)=C(N)NC12OCCO2 | > 100 | > 100 | > 100 | > 100 | > 100 | > 100 | > 100 | > 100 | > 100 | > 100 |  | 
CCOC(=O)C(=[N+]=[N-])C(=O)Nc1nn2nnnc2c2ccccc12 | > 100 | > 100 | > 100 | > 100 | > 100 | > 100 | > 100 | > 100 | > 100 | > 100 |  | 
Cc1ccc(S(=O)(=O)NNC(=O)c2cc(C)ccc2NC(=O)C23CC4CC(CC(C4)C2)C3)cc1 | > 100 | > 100 | > 100 | > 100 | > 100 | > 100 | > 100 | 78 | > 100 | > 100 |  | 
COc1cc2c(cc1OCCCC(=O)Nc1cc(C(=O)Nc3cc(C(=O)Nc4cc(C(=O)NCCCN(C)C)n(C)n4)n(C)n3)n(C)n1)N=CC1CCCN1C2=O (configuration not stated) | 47 | 72.2 | > 100 | 86.6 | 93.5 | 37.5 | 40.6 | 43.2 | > 100 | 44.9 |  | 
